Results as given in patent publication US6610744B2, “Methods of treatment with compounds having RARα receptor specific or selective activity” (Allergan, Inc., priority 1995, dated 2003).
pKd: −log10 of the molar value. ≈ marks a conversion by molar mass, not a printed value.

Legend:
[1] = test system: RPMI 8226 cells (malignant myeloma); test: RPMI 8226 cell culture assay (3H-thymidine incorporation); format: cell-based, human; details: FIG. 1; for growth of RPMI 8226 malignant cells: 96 hours; for growth of RPMI 8226 cells at low concentration: low concentration range 10^−12 to approximately 10^−9
Description: (§1) All trans-retinoic acid (t-RA) (Sigma Chemicals Co., St. Louis, Mo.) was stored at −70° C. Prior to each experiment the compound was dissolved in 100% ethanol at 1 mM and diluted in culture medium immediately before use. All experiments were performed in subdued light. Controls were assayed using the same concentration of ethanol as present in the experimental plates and this concentration of diluent had no effect in either assay.
The cell lines, RPMI 8226, ME-180 and AML-193 were obtained from the American Type Culture Collection (ATCC, Rockville, Md.). RPMI 8226 is a human hematopoietic cell line obtained from the peripheral blood of a patient with multiple myeloma. The cells resemble the lymphoblastoid cells of other human lymphocyte cell lines and secrete […] light chains of immunoglobulin. RPMI-8226 cells are grown in RPMI medium (Gibco) supplemented with 10% fetal bovine serum, glutamine and antibiotics. The cells were maintained as suspension cultures grown at 37° C. in a humidified atmosphere of 5% CO2 in air. The cells were diluted to a concentration of 1×10^5/ml twice a week.
(§2) The method used for determination of the incorporation of radiolabeled thymidine was adapted from the procedure described by Shrivastav et al. RPMI-8226 cells were plated in a 96 well round bottom microtiter plate (Costar) at a density of 1,000 cells/well. To appropriate wells, retinoid test compounds were added at the final concentrations indicated for a final volume of 150 μl/well. The plates were incubated for 96 hours at 37° C. in a humidified atmosphere of 5% CO2 in air. Subsequently, 1 μCi of [5′-^3H]-thymidine (Amersham, U.K. 43 Ci/mmol specific activity) in 25 μl culture medium was added to each well and the cells were incubated for an additional 6 hours. The cultures were further processed as described below.
(§3) The cell lines were then processed as follows: the cellular DNA was precipitated with 10% trichloroacetic acid onto glass fiber filter mats using a SKATRON multi-well cell harvester (Skatron Instruments, Sterling Va.). Radioactivity incorporated into DNA, as a direct measurement of cell growth, was measured by liquid scintillation counting. The numbers represent the mean disintegrations per minute of incorporated thymidine from triplicate wells±SEM.

[2] = test system: AML-193 cells (acute monocytic leukemia); test: AML 193 cell culture assay (3H-thymidine incorporation); format: cell-based, human; details: FIG. 3; low concentrations
Description: as §1
AML-193 was established from the blast cells classified as M5 Acute Monocyte Leukemia. The growth factor, […] (GM-CSF) was required to establish this cell line and growth factors are necessary for its continuous proliferation in chemically defined medium. AML-193 cells were grown and maintained in Iscove's modified Dulbecco's medium supplemented with 10% fetal bovine serum, glutamine and antibiotics with 5 μg/ml insulin (Sigma Chemical Co.) and 2 ng/ml rh GM-CSF (R and D Systems). The cells were diluted to a concentration of 3×10^5/ml twice a week.
as §2, with “AML-193” for “The method used for determination of the incorporation of radiolabeled thymidine was adapted from the procedure described by Shrivastav et al. RPMI-8226”, “U.K.,” for “U.K.”, “hours.” for “hours. The cultures were further processed as described below.”
as §3

[3] = test system: limb bud mesenchymal cells; test: Chondrogenesis suppression bioassay (teratogenic potency); format: cell-based; details: read-out: IC50 (50% inhibition of chondrogenesis); mouse limb bud spot cultures, 96 hours after plating; greater IC50 signifies lesser teratogenecity
Description: High-density “spot” cultures of limb bud mesenchymal cells are used to compare the ability of various concentrations of test drugs to suppress chondrogenic differentiation as a bioassay. Forelimb buds of mouse embryos on day 12 of gestation (54±2 somites) are dissociated in a trypsin-EDTA solution, and the resultant single-cell suspension is plated as 20-μl spots (200,000 cells/spot) on plastic culture dishes. Retinoid concentrations ranging from 0.3 ng/ml to 3 μg/ml (1 nM−10 μM) are added to the culture medium (Eagle's MEM±10% fetal bovine serum, GIBCO) 24 hours after initial plating. Control cultures receive only the vehicle (ethanol, concentration≦1% by vol); Retinoic acid is used as a positive control in another set of cultures.
The cultures are terminated 96 hours after plating, at which time the medium is removed and the cells are fixed for 1 hour in 10% formalin containing 0.5% cetylpyridinium chloride. The cultures are rinsed in acetic acid and stained for 1 hour in 0.5% Alcian blue solution at pH 1.0, differentiated in 3% acetic acid, and then dehydrated in ethanol and scored for chondrogenesis under the microscope. An absence or reduction in the number of cartilage nodules in stained cultures as compared with control cultures is taken as a measure of suppression of chondrogenesis. The number of cartilage nodules stained in the whole spot, mean number of nodules, and standard deviations are calculated for four replicate cultures per treatment. […] The IC50 values are expressed in nanogram per mililiter (ng/ml) units. An IC50 value of greater concentration in this assay signifies lesser teratogenecity.

RXRβ = target: T1, RXRβ (Homo sapiens, UniProt P28702); test: Ligand binding assay, RXRβ
T1 construct: made in house; host or cells: Baculovirus expression (insect cell extract)
T1 sequence (P28702 1-533): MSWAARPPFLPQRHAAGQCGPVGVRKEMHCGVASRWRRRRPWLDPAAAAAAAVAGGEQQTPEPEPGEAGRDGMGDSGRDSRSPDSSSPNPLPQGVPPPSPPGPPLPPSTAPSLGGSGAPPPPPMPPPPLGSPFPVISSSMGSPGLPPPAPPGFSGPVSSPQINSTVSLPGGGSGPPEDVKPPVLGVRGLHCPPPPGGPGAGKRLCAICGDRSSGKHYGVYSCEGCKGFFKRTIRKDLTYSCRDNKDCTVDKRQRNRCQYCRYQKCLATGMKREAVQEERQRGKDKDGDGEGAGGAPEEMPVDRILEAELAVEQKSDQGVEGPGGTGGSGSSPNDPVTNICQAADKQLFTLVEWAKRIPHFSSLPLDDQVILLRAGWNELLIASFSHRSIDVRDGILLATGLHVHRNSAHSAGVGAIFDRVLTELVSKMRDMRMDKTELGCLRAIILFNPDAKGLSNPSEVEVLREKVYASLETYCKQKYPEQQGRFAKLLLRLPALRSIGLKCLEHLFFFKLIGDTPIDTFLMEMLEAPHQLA
Description: (§4) All binding assays were performed in a similar fashion. All six receptor types were derived from the expressed receptor type (RARα, β, Γ and RXRα, β, Γ) expressed in Baculovirus. Stock solutions of all compounds were prepared as 10 mM ethanol solutions and serial dilutions carried out into 1:1 DMSO; ethanol. Assay buffers consisted of the following for all six receptor assays: 8% glycerol, 120 mM KCl 8 mM Tris, 5 mM CHAPS 4 mM DTT and 0.24 mM PMSF, pH-7.4@ room temperature.
(§5) All receptor binding assays were performed in the same manner. The final assay volume was 250 μl and contained from 10-40 μg of extract protein depending on receptor being assayed along with 5 nM of [^3H] all-trans retinoic acid or 10 nM [^3H] 9-cis retinoic acid and varying concentrations of competing ligand at concentrations that ranged from 0-10^−5 M. The assays were formatted for a 96 well minitube system. Incubations were carried out at 4° C. until equilibrium was achieved. Non-specific binding was defined as that binding remaining in the presence of 1000 nM of the appropriate unlabeled retinoic acid isomer. At the end of the incubation period, 50 μl of 6.25% hydroxyapitite was added in the appropriate wash buffer. The wash buffer consisted of 100 mM KCl, 10 mM Tris and either 5 mM CHAPS (RXRα, β, Γ) or 0.5% Triton X-100 (RARα, β, Γ). The mixture was vortexed and incubated for 10 minutes at 4° C., centrifuged and the supernatant removed. The hydroxyapitite was washed three more times with the appropriate wash buffer. The receptor-ligand complex was adsorbed by the hydroxyapitite. The amount of receptor-ligand complex was determined by liquid scintillation counting of hydroxyapitite pellet.
(§6) After correcting for non-specific binding, IC50 values were determined. […] The IC50 value was determined graphically from a loglogit plot of the data. The […] were determined by application of the Cheng-Prussof equation to the IC50 values, the labeled ligand concentration and the Kd of the labeled ligand.
(§7) The results of ligand binding assay are expressed in Kd numbers. (See Cheng et al. Biochemical Pharmacology Vol. 22 pp 3099-3108, expressly incorporated herein by reference.)

RXRΓ = target: T2, RXRΓ (Homo sapiens, UniProt P48443); test: Ligand binding assay, RXRΓ
T2 construct: made in house; host or cells: Baculovirus expression (insect cell extract)
T2 sequence (P48443 1-463): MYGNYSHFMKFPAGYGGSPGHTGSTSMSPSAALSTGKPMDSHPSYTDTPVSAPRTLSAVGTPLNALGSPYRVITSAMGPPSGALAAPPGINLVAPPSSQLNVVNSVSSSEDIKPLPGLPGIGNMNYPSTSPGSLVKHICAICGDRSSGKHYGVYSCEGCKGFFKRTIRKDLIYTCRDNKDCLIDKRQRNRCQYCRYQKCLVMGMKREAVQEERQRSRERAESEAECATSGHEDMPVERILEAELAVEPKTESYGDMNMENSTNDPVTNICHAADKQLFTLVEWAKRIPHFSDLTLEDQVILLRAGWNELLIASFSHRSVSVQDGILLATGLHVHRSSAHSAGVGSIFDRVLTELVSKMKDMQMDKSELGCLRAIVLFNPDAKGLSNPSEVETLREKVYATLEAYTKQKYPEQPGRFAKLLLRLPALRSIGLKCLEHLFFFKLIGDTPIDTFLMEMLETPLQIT
Description: as §4, §5, §6, §7

[4] = Weight loss in rats treated for 3 days; format: in vivo, rat; details: rats
Description: Weight loss or gain that experimental animals experience upon administration of retinoid compounds is another test of the drug's toxicity, with significant weight loss at relatively low doses indicating a significant toxic side effect of the retinoid. In one experiment, groups of 5 rats were treated with varying doses (administered in corn oil) of a test retinoid for 3 days. The rats were euthanized 24 hours after the last dose.

[5] = test system: hairless mice [Crl:SKH1-hrBR]; test: Eight day topical skin irritation assay in hairless mice; details: for Abrasion Score / Body Weight % gain or (loss) / Composite Score / Flaking Score / Mortality (out of 4): 5 days
Description: More particularly, skin irritation was measured on a semi-quantitative scale by the daily subjective evaluation of skin flaking and abrasions. A single number, the topical irritation score, summarizes the skin irritation induced in an animal during the course of an experiment. The topical irritation score is calculated as follows. The topical irritation score is the algebraic sum of a composite flaking score and a composite abrasion score. The composite scores range from 0-9 and 0-8 for flaking and abrasions, respectively, and take into account the maximum severity, the time of onset, and the average severity of the flaking and abrasions observed.
The severity of flaking is scored on a 5-point scale and the severity of abrasions is scored on a 4-point scale, with higher scores reflecting greater severity. The maximum severity component of the composite scores would be the highest daily severity score assigned to a given animal during the course of observation.
For the time of onset component of the composite score, a score ranging from 0 to 4 is assigned as follows:
The average severity component of the composite score is the sum of the daily flaking or abrasion scores divided by the number of observation days.
To calculate the composite flaking and abrasion scores, the average severity and time of onset scores are summed and divided by 2. The result is added to the maximal severity score. The composite flaking and abrasion scores are then summed to give the overall topical irritation score. Each animal receives a topical irritation score, and the values are expressed as the mean±SD of the individual scores of a group of animals. Values are rounded to the nearest integer.
Thus, female hairless mice [Crl:SKH1-hrBR] […] Treatments are applied to the dorsal skin in a total volume of 4 ml/kg (−0.1 ml).

SMILES: CC1(C)CCC(C)(C)c2c(Br)cc(C(=O)Nc3ccc(C(=O)O)c(F)c3)cc21 [Compound 4, 2-Fluoro-4-[(4′-bromo-5′,6′,7′,8′-tetrahydro-5′,5′,8′,8′-tetramethylnaphthalen-2′-yl)carbamoyl]benzoic Acid]
- growth of RPMI 8226 malignant cells [1]: inhibited the growth
- growth of RPMI 8226 cells at low concentration [1]: do not stimulate but rather already in this low concentrations inhibit the growth
- AML-193 cell proliferation at low concentrations [2]: reduce cell proliferation at low concentrations

SMILES: CC1(C)CC(C)(C)c2cc(C(=O)Nc3ccc(C(=O)O)c(F)c3)cc(Br)c2O1 [Compound 10, 2-Fluoro-4-[(2′,2′,4′,4′-tetramethyl-8′-bromochroman-6′-yl)carbamoyl]benzoic Acid]
- IC50 [3]: 250 ng/mL (≈ 555 nM)

SMILES: CC(C)(C)c1cc(C(=O)Nc2ccc(C(=O)O)cc2)cc(C(C)(C)C)n1 [Compound 44]
- pKd (RXRβ): < 6.00
- pKd (RXRΓ): < 6.00

SMILES: CC1(C)CC(C)(C)c2cc(C(=O)Nc3ccc(C(=O)O)c(F)c3)cc(I)c2O1 [Compound 18]
- AML-193 cell proliferation at low concentrations [2]: reduce cell proliferation at low concentrations
- IC50 [3]: 220 ng/mL (≈ 442 nM)
- weight loss compared to control ([4]; daily doses up to 90 μmol/kg/day in corn oil for 3 days, FIG. 6, FIG. 7): virtually no weight loss even in the high dose of 90 μmol/kg/day
- Abrasion Score ([5]; dose 100 nanomol/25 g topical): 1
- Body Weight % gain or (loss) ([5]; dose 100 nanomol/25 g topical): 8 ± 7%
- Composite Score ([5]; dose 100 nanomol/25 g topical): 1 ± 1
- Flaking Score ([5]; dose 100 nanomol/25 g topical): 0
- Mortality (out of 4) ([5]; dose 100 nanomol/25 g topical): 0 out of 4
- Abrasion Score ([5]; dose 1000 nanomol/25 g topical): 1
- Body Weight % gain or (loss) ([5]; dose 1000 nanomol/25 g topical): 4 ± 1%
- Composite Score ([5]; dose 1000 nanomol/25 g topical): 2 ± 0
- Flaking Score ([5]; dose 1000 nanomol/25 g topical): 1
- Mortality (out of 4) ([5]; dose 1000 nanomol/25 g topical): 0 out of 4

SMILES: CC1(C)CC(C)(C)c2cc(C(=O)Nc3ccc(C(=O)O)c(F)c3)cc(C(F)(F)F)c2O1 [Compound 12]
- growth of RPMI 8226 malignant cells [1]: inhibited the growth
- growth of RPMI 8226 cells at low concentration [1]: do not stimulate but rather already in this low concentrations inhibit the growth
- AML-193 cell proliferation at low concentrations [2]: reduce cell proliferation at low concentrations

SMILES: C/C(=C\c1ccc(C(=O)O)cc1)c1ccc2c(c1)C(C)(C)CCC2(C)C [TTNPB]
- IC50 [3]: 0.01 ng/mL (≈ 0.0287 nM)
- weight loss in similar tests ([4]; similar tests): very significant weight loss
- Abrasion Score ([5]; dose 0.9 nanomol/25 g topical): 3
- Body Weight % gain or (loss) ([5]; dose 0.9 nanomol/25 g topical): 5 ± 2%
- Composite Score ([5]; dose 0.9 nanomol/25 g topical): 8 ± 2
- Flaking Score ([5]; dose 0.9 nanomol/25 g topical): 5
- Mortality (out of 4) ([5]; dose 0.9 nanomol/25 g topical): 0 out of 4
- Abrasion Score ([5]; dose 2.7 nanomol/25 g topical): 3
- Body Weight % gain or (loss) ([5]; dose 2.7 nanomol/25 g topical): (4 ± 3) %
- Composite Score ([5]; dose 2.7 nanomol/25 g topical): 9 ± 2
- Flaking Score ([5]; dose 2.7 nanomol/25 g topical): 6
- Mortality (out of 4) ([5]; dose 2.7 nanomol/25 g topical): 0 out of 4
- Abrasion Score ([5]; dose 9 nanomol/25 g topical): 5
- Body Weight % gain or (loss) ([5]; dose 9 nanomol/25 g topical): (11 ± 3) %
- Composite Score ([5]; dose 9 nanomol/25 g topical): 11 ± 2
- Flaking Score ([5]; dose 9 nanomol/25 g topical): 7
- Mortality (out of 4) ([5]; dose 9 nanomol/25 g topical): 0 out of 4
- skin irritation (summary in words) ([5]; topical, hairless mice, RARα selective compound up to 1000 nmol/25 g): much more serious skin irritation

SMILES: CC(C)(C)c1cc(C(=O)Nc2ccc(C(=O)O)c(F)c2)c(O)c(C(C)(C)C)c1 [Compound 48]
- pKd (RXRβ): < 6.00
- pKd (RXRΓ): < 6.00
